Values joined by “and” are separate entries in the source; they are usually repeats but may differ in a detail not shown here. Equal entries are not always repeated.
Assays:
NEP = NEP (Homo sapiens, UniProt P08473); conditions: in vivo; cited from earlier work
[1] = test system: rat model of infrarenal abdominal aorta-vena cava fistula (AV fistula); experiment: AV fistula model: cumulative urinary sodium excretion; assay type: in vivo, Sprague Dawley rats; conditions: PO; for Urinary sodium (cumulative sodium excretion): 7 days of treatment, AV fistula rats; for % change in urinary sodium: 7 days, against vehicle control
Text: Sprague Dawley rats will be used in the study at the age to 6-8 weeks. A midline abdominal incision will be made under anesthesia to expose the vena cava and abdominal aorta distal to the origin of the renal arteries. A longitudinal incision will be performed in the outer wall of the vena cava. The common wall between the aorta and vena cava will be grabbed through the incision and a fistula (1.0-1.2 mm outer diameter) will be created between the vena cava and aorta. The opening of the outer wall of the vena cava will be closed with a continuous suture. After the surgical procedure, the animals will be allowed to recover with daily monitoring of urine output and sodium excretion in metabolic cages. A matched group of sham-operated rats will serve as controls. After a week of surgical operation, rats will be divided into subgroups according to their daily absolute rate of sodium excretion. Fimasartan or its pharmaceutically acceptable salt, or Sacubitril or its pharmaceutically acceptable salt or their combination will be taken as a low dose, middle dose, and high dose group. Animals will be treated daily for four weeks with weekly measurement of blood pressure. Additionally, sodium excretion and creatinine clearance will be measured twice weekly. In the rat model of infrarenal abdominal aorta-vena cava fistula (AV fistula), workload on heart increases by sustained volume overload, this reduces sodium excretion and leads to cardiac hypertrophy. […] Sprague Dawley rats in these experimental groups were treated daily by gavage for seven days and urine volume and sodium excretion were daily measured. Rats treated with vehicle served as controls. Rats with sham operation or animals with arterio-venous fistula treated with vehicle served as controls. Animals were randomized based on 24 h urinary sodium excretion. Animals with <100 μEq/24 h urinary sodium excretion were selected in study except sham control animals. Treatment was initiated for 7 days with daily measurement of sodium excretion and results were expressed as cumulative urinary sodium excretion. […] These observations indicate that combination of fimasartan and sacubitril reduce volume overload associated with AV Fistula. After completion of the treatment period, mean arterial blood pressure was evaluated from animals from different experimental groups.

[2] = test system: five sixth nephrectomized rats; experiment: Subtotal nephrectomy induced hypertension: blood pressure; assay type: in vivo, Sprague Dawley rats; conditions: four weeks
Description: Fimasartan 10 mg/kg and Sacubitril 50 mg/kg and combination were administered for 4 weeks. Prior to initiation, Sprague Dawley rats were randomized based on their systolic blood pressure after one week of recovery. These experimental groups were treated daily by gavage for four weeks and their weekly blood pressure was measured. Rats treated with vehicle served as controls and sham operated animals treated with vehicle served as sham controls. […] Experimental model of acute cardiac failure is characterized by several features that closely mimic the pathophysiological consequences of CHF in patients, includes the characteristic neurohumoral activation, decrease in renal perfusion, sodium retention and cardiac hypertrophy (J Biomed Biotechnol. 2011; 2011: 729497). […] Five sixth nephrectomy represent a model of hypertension in rats and in clinic it has been observed that loss of renal mass is associated with increased hypertension (APMIS. 1992 December; 100(12):1097-105; International Journal of Urology (2015) 22, 797-804).

[3] = test system: rat model of infrarenal abdominal aorta-vena cava fistula (AV fistula); experiment: AV fistula model: mean arterial blood pressure; assay type: in vivo, Sprague Dawley rats; conditions: for % change in meal arterial pressure / Mean arterial pressure: PO; for % change in meal arterial pressure: 7 days, against vehicle control; for Mean arterial pressure: after 7 days of treatment, AV fistula rats; for reduction of mean arterial blood pressure: after treatment period, in comparison to vehicle control, given as reduction
Text: Sprague Dawley rats will be used in the study at the age to 6-8 weeks. A midline abdominal incision will be made under anesthesia to expose the vena cava and abdominal aorta distal to the origin of the renal arteries. A longitudinal incision will be performed in the outer wall of the vena cava. The common wall between the aorta and vena cava will be grabbed through the incision and a fistula (1.0-1.2 mm outer diameter) will be created between the vena cava and aorta. The opening of the outer wall of the vena cava will be closed with a continuous suture. After the surgical procedure, the animals will be allowed to recover with daily monitoring of urine output and sodium excretion in metabolic cages. A matched group of sham-operated rats will serve as controls. After a week of surgical operation, rats will be divided into subgroups according to their daily absolute rate of sodium excretion. Fimasartan or its pharmaceutically acceptable salt, or Sacubitril or its pharmaceutically acceptable salt or their combination will be taken as a low dose, middle dose, and high dose group. Animals will be treated daily for four weeks with weekly measurement of blood pressure. Additionally, sodium excretion and creatinine clearance will be measured twice weekly. In the rat model of infrarenal abdominal aorta-vena cava fistula (AV fistula), workload on heart increases by sustained volume overload, this reduces sodium excretion and leads to cardiac hypertrophy. Rats receiving fimasartan (5, 10 and 30 mg/kg/day), sacubitril (25, 50 and 75 mg/kg/day) and combination (fimasartan 10 mg/kg and sacubitril 50 mg/kg) were evaluated in AV fistula model. Sprague Dawley rats in these experimental groups were treated daily by gavage for seven days and urine volume and sodium excretion were daily measured. Rats treated with vehicle served as controls. Rats with sham operation or animals with arterio-venous fistula treated with vehicle served as controls. Animals were randomized based on 24 h urinary sodium excretion. Animals with <100 μEq/24 h urinary sodium excretion were selected in study except sham control animals. Treatment was initiated for 7 days with daily measurement of sodium excretion and results were expressed as cumulative urinary sodium excretion. […] These observations indicate that combination of fimasartan and sacubitril reduce volume overload associated with AV Fistula. After completion of the treatment period, mean arterial blood pressure was evaluated from animals from different experimental groups.

Chain of NEP (P08473 whole entry): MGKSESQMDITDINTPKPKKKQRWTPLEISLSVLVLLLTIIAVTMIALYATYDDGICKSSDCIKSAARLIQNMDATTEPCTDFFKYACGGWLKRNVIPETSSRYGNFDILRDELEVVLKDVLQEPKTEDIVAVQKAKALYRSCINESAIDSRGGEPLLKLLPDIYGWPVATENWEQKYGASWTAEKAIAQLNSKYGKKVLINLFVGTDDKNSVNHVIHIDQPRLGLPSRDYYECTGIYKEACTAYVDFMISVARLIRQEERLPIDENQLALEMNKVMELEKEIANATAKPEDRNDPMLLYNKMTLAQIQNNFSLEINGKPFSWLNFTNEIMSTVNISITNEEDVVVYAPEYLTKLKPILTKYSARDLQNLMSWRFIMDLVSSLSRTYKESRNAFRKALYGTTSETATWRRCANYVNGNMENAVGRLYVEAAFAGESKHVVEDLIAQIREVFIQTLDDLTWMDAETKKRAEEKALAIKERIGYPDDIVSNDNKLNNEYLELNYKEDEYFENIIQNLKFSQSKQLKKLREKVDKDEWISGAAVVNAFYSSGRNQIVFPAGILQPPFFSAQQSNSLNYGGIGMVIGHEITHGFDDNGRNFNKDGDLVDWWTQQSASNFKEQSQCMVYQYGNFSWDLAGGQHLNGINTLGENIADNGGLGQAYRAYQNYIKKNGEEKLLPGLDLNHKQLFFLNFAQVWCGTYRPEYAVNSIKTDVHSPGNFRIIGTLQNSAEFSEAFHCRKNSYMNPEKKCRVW

In the case of `COCCOC[C@H](CC1(C(=O)N[C@H]2CC[C@@H](C(=O)O)CC2)CCCC1)C(=O)O` [candoxatrilat], the “natriuretic and cyclic GMP responses to a low-dose ANP infusion” value (NEP) is listed as “potentiates”.

In the case of `CCCCc1nc(C)c(CC(=S)N(C)C)c(=O)n1Cc1ccc(-c2ccccc2-c2nnn[nH]2)cc1` [Fimasartan, 2-n-butyl-5-dimethylaminothiocarbonyl-methyl-6-methyl-3-[[2′-(1H-tetrazol-5-yl)biphenyl-4-yl]methyl]pyrimidin-4(3H)-one], the “Urinary sodium (cumulative sodium excretion)” value ([1]; fimasartan 5 mg/kg) is reported as 4784.8 ± 497.5 μeq/24 h, the “% change in urinary sodium” value ([1]; fimasartan 5 mg/kg) is reported as 31.1 ± 13.6 % and the “% change in urinary sodium” value ([1]; fimasartan 5 mg/kg, listed as fimasartan) is reported as 31.1±13.6%. For the same compound, the “Urinary sodium (cumulative sodium excretion)” value ([1]; fimasartan 10 mg/kg) was 5179.7 ± 451.2 μeq/24 h and 5179.7 ± 443.7 μeq/24 h, the “% change in urinary sodium” value ([1]; fimasartan 10 mg/kg) was 41.9 ± 12.2 % and 51.2 ± 11.9 % and the “% change in urinary sodium” value ([1]; fimasartan 10 mg/kg, listed as fimasartan) was 41.9±12.2%. The “Urinary sodium (cumulative sodium excretion)” value ([1]; fimasartan 20 mg/kg) was 6664.7 ± 448.2 μeq/24 h, the “% change in urinary sodium” value ([1]; fimasartan 20 mg/kg) was 82.6 ± 13.1 % and the “% change in urinary sodium” value ([1]; fimasartan 20 mg/kg, listed as fimasartan) was 82.6±13.1%. For the same compound, the “reduction in blood pressure against vehicle control” value ([2]; Fimasartan 10 mg/kg daily by gavage) was 15.9%, the “% change in meal arterial pressure” value ([3]; fimasartan 10 mg/kg) was −5.9 ± 1.9 % and the Mean arterial pressure ([3]; fimasartan 10 mg/kg) was 111.7 ± 2.3 mmHg. The “reduction of mean arterial blood pressure” value ([3]; fimasartan alone (FIG. 2)) was 5.9±1.9%.

For `CCOC(=O)[C@H](C)C[C@@H](Cc1ccc(-c2ccccc2)cc1)NC(=O)CCC(=O)O` [Sacubitril, 4-[[(2S,4R)-5-ethoxy-4-methyl-5-oxo-1-(4-phenylphenyl)pentan-2-yl]amino]-4-oxobutanoic acid], the “Urinary sodium (cumulative sodium excretion)” value ([1]; sacubitril 25 mg/kg) was 5185.7 ± 443.7 μeq/24 h, the “% change in urinary sodium” value ([1]; sacubitril 25 mg/kg) was 41.9 ± 12.2 % and the “% change in urinary sodium” value ([1]; sacubitril 25 mg/kg, listed as sacubitril) was 41.9±12.1%. For the same compound, the “Urinary sodium (cumulative sodium excretion)” value ([1]; sacubitril 50 mg/kg) was 6678.7 ± 451.7 μeq/24 h, the “% change in urinary sodium” value ([1]; sacubitril 50 mg/kg) was 82.6 ± 13.5 % and the “% change in urinary sodium” value ([1]; sacubitril 50 mg/kg, listed as sacubitril) was 82.6±13.5%. The “Urinary sodium (cumulative sodium excretion)” value ([1]; sacubitril 75 mg/kg) was 9129.7 ± 449.7 μeq/24 h, the “% change in urinary sodium” value ([1]; sacubitril 75 mg/kg) was 150.1 ± 10.4 % and the “% change in urinary sodium” value ([1]; sacubitril 75 mg/kg, listed as sacubitril) was 150.1±10.4%. The “reduction in blood pressure against vehicle control” value ([2]; Sacubitril 50 mg/kg daily by gavage) was 18.7%, the “% change in meal arterial pressure” value ([3]; sacubitril 50 mg/kg) was −8 ± 1.9 % and the Mean arterial pressure ([3]; sacubitril 50 mg/kg) was 109.2 ± 2.2 mmHg. For the same compound, the “reduction of mean arterial blood pressure” value ([3]; sacubitril alone (FIG. 2)) was 8.0±1.9%.

Source: patent publication US20180311241A1, “PHARMACEUTICAL SYNERGISTIC COMBINATION” (CADILA HEALTHCARE LIMITED, priority 2015, published 2018)
